Laboratory results taken from patent US20230183193A1, “4-DIFLUOROMETHYL BENZOYL AMIDES WITH HERBICIDAL ACTION” (BAYER CROPSCIENCE AKTIENGESELLSCHAFT, priority 2017, published 2023).

Tests used:
[1] = test system: Stellaria media; test: Pre-emergence herbicidal action, STEME; type: in vivo; conditions: dosage 320 g/ha, scored visually after 3 weeks vs untreated controls
Method in brief: (§1)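 Percent herbicidal activity rated by eye 3 weeks after pre-emergence soil-surface application, compared with untreated pots. Seeds sat under sandy loam; sprays carried 0.2% wetting agent.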

[2] = test system: Amaranthus retroflexus; test: Pre-emergence herbicidal action, AMARE; type: in vivo; conditions: dosage 320 g/ha, scored visually after 3 weeks vs untreated controls
Method in brief: as §1

[3] = test system: Setaria viridis; test: Pre-emergence herbicidal action, SETVI; type: in vivo; conditions: for herbicidal activity SETVI: dosage 320 g/ha, scored visually after 3 weeks vs untreated controls
Method in brief: as §1

[4] = test system: Amaranthus retroflexus; test: Post-emergence herbicidal action, AMARE; type: in vivo; conditions: 80 g/ha, Table D
Method in brief: (§2)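 Post-emergence spray; one-leaf stage (2–3 wk after sowing), sandy loam, greenhouse. WP/EC in water, 600 to […], +0.2% wetting agent. Visual % damage vs untreated at ~3 wk; 100% = plants dead.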

[5] = test system: ECHCG; test: Pre-emergence herbicidal action, ECHCG; type: in vivo, Echinochloa crus-galli
[6] = test system: Viola tricolor; test: Post-emergence herbicidal action, VIOTR; type: in vivo; conditions: for herbicidal activity VIOTR: 80 g/ha, Table D
Method in brief: as §2

[7] = test system: Setaria viridis; test: Post-emergence herbicidal action, SETVI; type: in vivo; conditions: for herbicidal activity SETVI: 80 g/ha, Table C
Method in brief: as §2

[8] = test system: Polygonum convolvulus; test: Pre-emergence herbicidal action, POLCO; type: in vivo; conditions: Table K
Excerpt: 1. Pre-Emergence Herbicidal Action Against Harmful Plants Seeds of monocotyledonous and dicotyledonous weed plants and crop plants are laid out in sandy loam soil in wood-fiber pots and covered with soil. The compounds of the invention, formulated in the form of wettable powders (WP) or as emulsion concentrates (EC), are then applied to the surface of the covering soil in the form of an aqueous suspension or emulsion at a water application rate equating to […], with addition of 0.2% wetting agent. After the treatment, the pots are placed in a greenhouse and kept under good growth conditions for the trial plants. The damage to the test plants is scored visually after a test period of 3 weeks by comparison with untreated controls (herbicidal activity in percent (%): 100% activity=the plants have died, 0% activity=like control plants).
For comparison, the herbicidal activity of numerous compounds according to the invention was tested with the structurally closest compounds known from the documents WO 2011/035874, WO 2012/028579 and WO 2012/126932, by the pre- and post-emergence method.

[9] = test system: ECHCG; test: Post-emergence herbicidal action, ECHCG; type: in vivo; conditions: 80 g/ha, Table C
Method in brief: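 Weed and crop plants grown in sandy loam in the greenhouse, treated at the one-leaf stage 2–3 weeks after sowing. Damage scored visually after about 3 weeks vs untreated controls (0% = control, 100% = dead).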

[10] = test system: Matricaria inodora; test: Pre-emergence herbicidal action, MATIN; type: in vivo; conditions: for Herbicidal efficacy against MATIN: Table K; for herbicidal activity MATIN: scored visually after 3 weeks vs untreated controls
Method in brief: as §1

[11] = test system: Abutilon theophrasti; test: Post-emergence herbicidal action, ABUTH; type: in vivo; conditions: 80 g/ha, Table D
Method in brief: as §2

[12] = test system: Alopecurus myosuroides; test: Post-emergence herbicidal action, ALOMY; type: in vivo; conditions: for herbicidal activity ALOMY: 80 g/ha, Table C
Method in brief: as §2

[13] = test system: Avena fatua; test: Pre-emergence herbicidal action, AVEFA; type: in vivo; conditions: for herbicidal activity AVEFA: dosage 320 g/ha, scored visually after 3 weeks vs untreated controls
Method in brief: as §1

[14] = test system: Stellaria media; test: Post-emergence herbicidal action, STEME; type: in vivo; conditions: for Herbicidal activity STEME: 80 g/ha, Table D
Method in brief: as §2

[15] = test system: Abutilon theophrasti; test: Pre-emergence herbicidal action, ABUTH; type: in vivo; conditions: for Herbicidal efficacy against ABUTH: Table K; for herbicidal activity ABUTH: scored visually after 3 weeks vs untreated controls
Method in brief: as §1

[16] = test system: Avena fatua; test: Post-emergence herbicidal action, AVEFA; type: in vivo; conditions: for herbicidal activity AVEFA: 80 g/ha, Table C
Method in brief: as §2

[17] = test system: Alopecurus myosuroides; test: Pre-emergence herbicidal action, ALOMY; type: in vivo; conditions: for herbicidal activity ALOMY: dosage 320 g/ha, scored visually after 3 weeks vs untreated controls
Method in brief: as §1

[18] = test system: Cyperus serotinus; test: Pre-emergence herbicidal action, CYPES; type: in vivo; conditions: for herbicidal activity CYPES: dosage 320 g/ha, scored visually after 3 weeks vs untreated controls
Method in brief: as §1

[19] = test system: Pharbitis purpureum; test: Post-emergence herbicidal action, PHBPU; type: in vivo; conditions: 80 g/ha, Table D
Method in brief: as §2

[20] = test system: Viola tricolor; test: Pre-emergence herbicidal action, VIOTR; type: in vivo; conditions: for Herbicidal efficacy against VIOTR: Table K; for herbicidal activity VIOTR: scored visually after 3 weeks vs untreated controls
Method in brief: as §1

Structure (SMILES): CSc1c(C(F)F)ccc(C(=O)Nc2nnnn2C)c1Cl [Example 1-49]
- Herbicidal activity STEME [1]: 90%
- herbicidal activity AMARE [2]: 100%
- Herbicidal efficacy against SETVI ([3]; 20 g/ha): 90
- herbicidal activity SETVI [3]: 100%
- herbicidal activity AMARE [4]: 80%
- Herbicidal efficacy against ECHCG ([5]; 20 g/ha): 50
- Herbicidal efficacy against ECHCG ([5]; 80 g/ha): 100
- Herbicidal efficacy against VIOTR ([6]; 5 g/ha): 100
- herbicidal activity VIOTR [6]: 100%
- Herbicidal efficacy against SETVI ([7]; 5 g/ha): 80
- herbicidal activity SETVI [7]: 90%
- Herbicidal efficacy against POLCO ([8]; dosage 80 g/ha): 50
- Herbicidal activity ECHCG [9]: 80%
- Herbicidal efficacy against MATIN ([10]; dosage 20 g/ha): 80
- herbicidal activity MATIN ([10]; dosage 320 g/ha): 100%
- herbicidal activity ABUTH [11]: 90%
- Herbicidal efficacy against ALOMY ([12]; 5 g/ha): 60
- herbicidal activity ALOMY [12]: 90%
- Herbicidal efficacy against AVEFA ([13]; 20 g/ha): 50
- Herbicidal efficacy against AVEFA ([13]; 80 g/ha): 80
- herbicidal activity AVEFA [13]: 100%
- Herbicidal efficacy against STEME ([14]; 5 g/ha): 70
- Herbicidal activity STEME [14]: 100%
- Herbicidal efficacy against ABUTH ([15]; dosage 20 g/ha): 70
- Herbicidal efficacy against ABUTH ([15]; dosage 80 g/ha): 100
- herbicidal activity ABUTH ([15]; dosage 320 g/ha): 100%
- Herbicidal efficacy against AVEFA ([16]; 5 g/ha): 50
- herbicidal activity AVEFA [16]: 100%
- Herbicidal efficacy against ALOMY ([17]; 20 g/ha): 40
- Herbicidal efficacy against ALOMY ([17]; 80 g/ha): 90
- herbicidal activity ALOMY [17]: 100%
- Herbicidal efficacy against CYPES ([18]; 20 g/ha): 50
- Herbicidal efficacy against CYPES ([18]; 80 g/ha): 70
- herbicidal activity CYPES [18]: 90%
- Herbicidal activity PHBPU [19]: 90%
- Herbicidal efficacy against VIOTR ([20]; dosage 20 g/ha): 100
- Herbicidal efficacy against VIOTR ([20]; dosage 80 g/ha): 100
- herbicidal activity VIOTR ([20]; dosage 320 g/ha): 100%

Structure (SMILES): Cn1nnnc1NC(=O)c1ccc(C(F)F)c([S+](C)[O-])c1Cl (stereo not drawn) [Example 1-50]
- Herbicidal activity STEME [1]: 90%
- herbicidal activity AMARE [2]: 100%
- Herbicidal efficacy against SETVI ([3]; 20 g/ha): 100
- Herbicidal efficacy against SETVI ([3]; 80 g/ha): 100
- Herbicidal efficacy against SETVI ([3]; 320 g/ha): 100
- herbicidal activity SETVI [3]: 100%
- herbicidal activity AMARE [4]: 100%
- Herbicidal efficacy against ECHCG ([5]; 20 g/ha): 90
- Herbicidal efficacy against ECHCG ([5]; 80 g/ha): 100
- Herbicidal efficacy against ECHCG ([5]; 320 g/ha): 100
- herbicidal activity VIOTR [6]: 100%
- herbicidal activity SETVI [7]: 100%
- Herbicidal efficacy against POLCO ([8]; dosage 80 g/ha): 80
- Herbicidal efficacy against POLCO ([8]; dosage 320 g/ha): 90
- Herbicidal activity ECHCG [9]: 100%
- Herbicidal efficacy against MATIN ([10]; dosage 20 g/ha): 90
- Herbicidal efficacy against MATIN ([10]; dosage 80 g/ha): 100
- Herbicidal efficacy against MATIN ([10]; dosage 320 g/ha): 100
- herbicidal activity MATIN ([10]; dosage 320 g/ha): 100%
- herbicidal activity ABUTH [11]: 100%
- herbicidal activity ALOMY [12]: 100%
- Herbicidal efficacy against AVEFA ([13]; 80 g/ha): 90
- Herbicidal efficacy against AVEFA ([13]; 320 g/ha): 100
- herbicidal activity AVEFA [13]: 100%
- Herbicidal activity STEME [14]: 100%
- Herbicidal efficacy against ABUTH ([15]; dosage 20 g/ha): 100
- Herbicidal efficacy against ABUTH ([15]; dosage 80 g/ha): 100
- Herbicidal efficacy against ABUTH ([15]; dosage 320 g/ha): 100
- herbicidal activity ABUTH ([15]; dosage 320 g/ha): 100%
- herbicidal activity AVEFA [16]: 100%
- Herbicidal efficacy against ALOMY ([17]; 20 g/ha): 90
- Herbicidal efficacy against ALOMY ([17]; 80 g/ha): 100
- Herbicidal efficacy against ALOMY ([17]; 320 g/ha): 100
- herbicidal activity ALOMY [17]: 100%
- Herbicidal efficacy against CYPES ([18]; 20 g/ha): 70
- Herbicidal efficacy against CYPES ([18]; 80 g/ha): 100
- Herbicidal efficacy against CYPES ([18]; 320 g/ha): 100
- herbicidal activity CYPES [18]: 100%
- Herbicidal activity PHBPU [19]: 100%
- Herbicidal efficacy against VIOTR ([20]; dosage 20 g/ha): 100
- Herbicidal efficacy against VIOTR ([20]; dosage 80 g/ha): 100
- Herbicidal efficacy against VIOTR ([20]; dosage 320 g/ha): 100
- herbicidal activity VIOTR ([20]; dosage 320 g/ha): 100%
